In paper PMC3448056, “2-Benzamido-N-(1H-benzo[d]imidazol-2-yl)thiazole-4-carboxamide derivatives as potent inhibitors of CK1δ/ε” (Amino Acids, 2012):
Read-outs that look alike come from different tables or passages of the source.

Legend:
[1] = system: mKSA cells; assay: Flow cytometry cell cycle analysis; format: cell-based, mouse; settings: 2 and 4 μM, 48 h, range stated jointly for Frwt648 and mKSA and compounds 5 and 6
Protocol: (§1) Frwt648 cells [generated by SV40-transformation of F111 cells; (Hinzpeter and Deppert [1987])] and mKSA cells [SV40-transformed Balb/c fibroblasts; (Kit et al. [1969])] were grown in Dulbecco’s modified Eagle’s medium (DMEM) supplemented with 5% fetal calf serum (FCS; Biochrom, Berlin, Germany). The fibrosarcoma cell line HT1080 (Rasheed et al. [1974]) was grown in DMEM containing 10% FCS and 2 mM glutamine while both the prostate cancer cell line DU-145 (Stone et al. [1978]) and the ovary tissue cancer cell line OVCAR-3 (Hamilton et al. [1983]) were maintained in RPMI-1640 supplemented with 10% FCS. The pancreatic cancer cell line Colo357 (Morgan et al. [1980]) was grown in DMEM/RPMI (1:1) and the colon adenocarcinoma cell line SW480 (Leibovitz et al. [1976]) in Leibovitz L-15 medium, both containing 10% FCS and 2 mM glutamine. All media were supplemented with 100 U/ml penicillin and 100 μg/ml streptomycin (Gibco, Karlsruhe, Germany) and all cell lines were grown at 37°C in a humidified 5% carbon dioxide atmosphere.
Subconfluent Frwt648, mKSA, Colo357, OVCAR-3, HT1080, DU-145 and SW480 cells were treated with 2 or 4 μM of compounds 5 or 6 for 48 h. Untreated and DMSO treated cells served as control. Cells were harvested, washed once with phosphate-buffered saline (PBS), and prepared for cell cycle analysis using the “Cycle Test Plus Kit” (BD, San Jose, USA). […]

[2] = target: T1, GST-mouse CK1δTV2 (Mus musculus, UniProt Q9DC28); assay: In vitro kinase assay, GST-mouse CK1δTV2; format: biochemical
T1 construct: made in house; host or cells: bacteria (pGEX-2T)
T1 sequence (Q9DC28 1-409 isoform Q9DC28-2): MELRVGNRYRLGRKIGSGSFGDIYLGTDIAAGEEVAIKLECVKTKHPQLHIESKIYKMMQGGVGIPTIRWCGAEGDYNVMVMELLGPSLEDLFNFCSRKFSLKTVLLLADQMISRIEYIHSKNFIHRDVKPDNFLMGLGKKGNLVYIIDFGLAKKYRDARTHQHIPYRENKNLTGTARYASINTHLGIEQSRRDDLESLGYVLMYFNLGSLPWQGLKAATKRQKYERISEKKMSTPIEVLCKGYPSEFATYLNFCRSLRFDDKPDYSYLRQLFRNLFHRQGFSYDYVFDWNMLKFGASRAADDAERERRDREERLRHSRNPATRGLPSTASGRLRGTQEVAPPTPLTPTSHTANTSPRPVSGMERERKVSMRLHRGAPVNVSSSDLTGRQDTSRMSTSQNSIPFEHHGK
Description: CK1δTV1 and 2 (transcription variants 1 and 2) were PCR amplified from mouse cDNA (5′-primer TV1 and 2: 5′-[…]-3′, 3′-primer TV1: 5′-[…]-3′, 3′-primer TV2: 5′-[…]-3′) and cloned into pcDNA3.1/V5-His© TOPO® TA cloning vector (Invitrogen, Karlsruhe, Germany) before being subcloned into pGEX-2T expression vector via BamHI to generate plasmids pGEX-2T-mouse CK1δTV1 (FP1170) and pGEX-2T-mouse CK1δTV2 (FP1171).
Expression and purification of the GST-fusion proteins GST-mouse p53^1–64 (FP267), GST-rat CK1δ (FP449), GST-rat CK1δ^M82F (FP1153), GST-mouse CK1δTV1 (FP1170), and GST-mouse CK1δTV2 (FP1171) was carried out as described elsewhere (Wolff et al. [2005]). Expression of fusion proteins FP1170 and 1171 was either performed at 37°C for 2 h, or at 15°C for 14 h. FP449 and FP1153 were always expressed at 15°C for 14 h.
In vitro kinase assays were carried out in the presence of various potential inhibitors of CK1δ at an ATP concentration of 0.01 mM and dimethyl sulfoxide (DMSO) solvent control as described previously (Knippschild et al. [1996]). Where indicated higher ATP concentrations (0.05, 0.1, 0.25 and 0.5 mM) were used. The fusion protein GST-mouse p53^1−64 (FP267) was used as substrate. Recombinant CK1δ kinase domain (CK1δkd, NEB, Frankfurt am Main, Germany), GST-rat CK1δ (FP449), GST-rat CK1δ^M82F (FP1153), GST-mouse CK1δTV1, GST-mouse CK1δTV2 and recombinant human CK1ε (Invitrogen, Karlsruhe, Germany) were used as sources of enzyme. Phosphorylated proteins were separated by SDS-PAGE and the protein bands were visualized on dried gels by autoradiography. The phosphorylated protein bands were excised and quantified by Cherenkov counting.

[3] = system: DU-145 cells; assay: Flow cytometry cell cycle analysis; format: cell-based, human; settings: 48 h (data not shown); for dead cells: DU-145, 2 or 4 μM
Protocol: as §1
(§2) Subconfluent Frwt648, mKSA, Colo357, OVCAR-3, HT1080, DU-145 and SW480 cells were treated with 2 or 4 μM of compounds 5 or 6 for 48 h. Untreated and DMSO treated cells served as control. Cells were harvested, washed once with phosphate-buffered saline (PBS), and prepared for cell cycle analysis using the “Cycle Test Plus Kit” (BD, San Jose, USA). Cell cycle profiles were obtained using a FACScan flow cytometer and CellQuest software (BD Biosciences, San Jose, USA).

[4] = system: HT1080 cells; assay: Flow cytometry cell cycle analysis; format: cell-based, human; settings: HT1080, 2 or 4 μM, 48 h (data not shown)
Protocol: as §1, §2

[5] = system: OVCAR-3 cells; assay: Flow cytometry cell cycle analysis; format: cell-based, human; settings: 48 h
Protocol: as §1, §2

[6] = system: Colo357 cells; assay: Flow cytometry cell cycle analysis; format: cell-based, human; settings: Colo357, 2 or 4 μM, 48 h
Protocol: as §1, §2

[7] = system: SW480 cells; assay: Flow cytometry cell cycle analysis; format: cell-based, human; settings: SW480, 2 or 4 μM, 48 h (data not shown)
Protocol: as §1, §2

[8] = target: T2, CK1δkd (Rattus norvegicus, UniProt Q06486); assay: In vitro kinase assay, CK1δ kinase domain; format: biochemical; settings: for inhibition of CK1δkd in initial screen: inhibitor 10 μM, 10 μM ATP (Fig. 1a); for mode of inhibition: inhibitor at IC50 concentration, ATP 0.01-0.5 mM (Fig. 6)
T2 construct: Recombinant CK1δ kinase domain (CK1δkd, NEB, Frankfurt am Main, Germany); purchased NEB, Frankfurt am Main, Germany
T2 sequence (Q06486 9-277 limits assumed): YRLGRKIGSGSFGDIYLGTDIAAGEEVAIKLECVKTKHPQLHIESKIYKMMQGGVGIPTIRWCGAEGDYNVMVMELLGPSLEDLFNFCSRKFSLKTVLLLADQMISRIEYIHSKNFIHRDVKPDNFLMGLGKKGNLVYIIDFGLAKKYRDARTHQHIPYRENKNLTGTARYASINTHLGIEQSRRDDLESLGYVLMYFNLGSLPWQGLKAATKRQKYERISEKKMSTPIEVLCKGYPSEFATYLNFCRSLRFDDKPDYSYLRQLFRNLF

[9] = 0.01 mM ATP, substrate GST-mouse p53^1-64, mean ± SD, read-out: IC50 (μM) GST-CK1δ TV2

## O=C(Nc1nc2ccc(C(F)(F)F)cc2[nH]1)c1csc(NC(=O)c2ccccc2OC(F)(F)F)n1 [Compound 5, 2-(2-(Trifluoromethoxy)benzamido)-N-(6-(trifluoromethyl)-1H-benzo[d]imidazol-2-yl)thiazole-4-carboxamide]
[1]
  dead cells: 35–98%
[2]; [9]
  IC50: 0.042 ± 0.02 µM
[2]; IC50 CK1δTV2, 2 h, enzyme induced for 2 h at 37°C
  IC50: 0.064 µM
[2]; enzyme induced for 14 h at 15°C, read-out: IC50 CK1δTV2, 14 h
  IC50: 0.043 µM
[3]; 2 or 4 μM
  susceptibility of DU-145 to treatment: unsusceptible
[3]
  dead cells: ≤ 20%
[4]
  dead cells: ≤ 20%
[5]; OVCAR-3, 2 or 4 μM
  effect on cell cycle distribution: slight increase of cells in the G2 phase
[6]
  effect on cell cycle distribution: more cells appeared to be in the G1 phase
[7]
  dead cells: ≤ 20%
[8]
  inhibition of CK1δkd in initial screen: significant inhibition
  mode of inhibition: ATP competitive inhibitors

## O=C(Nc1nc2cc(Cl)c(F)cc2[nH]1)c1csc(NC(=O)c2ccccc2OC(F)(F)F)n1 [Compound 6, N-(5-Chloro-6-fluoro-1H-benzo[d]imidazol-2-yl)-2-(2-(trifluoromethoxy)benzamido)thiazole-4-carboxamide]
[1]
  dead cells: 35–98%
[2]; [9]
  IC50: 0.055 ± 0.02 µM
[3]
  dead cells: ≤ 20%
[4]
  dead cells: ≤ 20%
[5]; OVCAR-3, 4 μM
  cells died upon treatment: 39%
[6]
  effect on cell cycle distribution: more cells appeared to be in the G1 phase
[7]
  dead cells: ≤ 20%
[8]; 0.01 mM ATP, substrate GST-mouse p53^1-64, mean ± SD
  IC50: 0.085 ± 0.01 µM
[8]
  inhibition of CK1δkd in initial screen: significant inhibition
  mode of inhibition: ATP competitive inhibitors
